According to article PMC10079954, “Rational design of phase separating peptides based on phase separating protein sequence of p53” (Scientific Reports, 2023):

Columns and labels:
[1] = biological target: C-terminal peptide of p53; assay: Affinity of DPp53C1 to the C-terminal peptide of p53; format: binding
p53 tetramer = assay: Recruitment (enrichment index) of p53 tetramer into designed peptide droplets; parameters: species or system human; details: droplet interior regions, surface not included; no salt, pH 7.0
Description: (§1) We prepared p53 tetramer, dimer, and monomer mutants, as described previously[8],[37],[50]. For the p53 tetramer, a thermostable and cysteine-modified human p53 mutant (C124A, C135V, C141V, W146Y, C182S, V203A, R209P, C229Y, H233Y, Y234F, N235K, Y236F, T253V, N268D, C275A, C277A, and K292C) was used[50]. The dimer and monomer mutants of p53 corresponded to L344A and L344P of the tetramer sequence, respectively[8],[37]. These p53 mutants were expressed with a glutathione S-transferase (GST) tag in E. coli and purified after cleavage of the GST tag, as described previously[50],[51]. The oligomeric state of p53 mutants was confirmed using a gel filtration column (Superdex 200; GE Healthcare). p53 mutants were labeled with Atto488 (ATTO-TEC) or Alexa488 (Thermo Fisher) using maleimide chemistry and then purified using a heparin column (GE Healthcare). We prepared Alexa488-labeled FUS-MBP as described previously[37],[39].
(§2) Recruitment evaluations were performed following the method described in our previous studies[37],[41]. Solutions containing 0.9–1.8 mM designed peptides, 0.1 µM Alexa488-labeled p53 mutants or Alexa488, 25 mM HEPES, 0.5 mM EDTA, and 1 mM DTT at pH 7.0 were used. The solutions were then incubated at 22 °C for five minutes. The aforementioned microscope was used with HILO illumination. To prevent photo-bleaching of the fluorescent samples, we used a laser power of 0.15 mW. The images were acquired at 22 °C. Using the ImageJ software, we calculated the EI values of the individual droplets as follows:2 EI=Idroplet/Isolution, where Idroplet and Isolution represent the average fluorescence intensities of the individual droplets and solutions near the droplets with background substitution, respectively.

[2] = Single-molecule fluorescence tracking (HILO) of labeled molecules in their droplets; format: physicochemical; details: Alexa488-labeled peptide 10–100 pM in 0.9 mM non-labeled peptide droplets; 25 mM HEPES, 0.5 mM EDTA, 45 mM NaCl, 150 mg/mL dextran, pH 7.0; linear fit of MSD (4D slope)
Experimental: We quantitatively characterized the liquid droplet properties of the four designed peptides and compared them with those of p53. We measured the fusion of the designed peptide droplets in the solution used for p53 droplets (Supplementary Fig. S4). In the presence of 45 mM NaCl and 150 mg/mL dextran, the fusion of droplets for the four designed peptides was observed within 0.2 s, which was much faster than that for p53 (3.7 min)[8]. This gap in the fusion period implies different intrinsic dynamic properties. We measured the movement of Alexa488-labeled peptides within non-labeled peptide droplets using single-molecule fluorescence microscopy with a highly inclined and laminated optical sheet (HILO) illumination[37],[41] (Fig. 3A). […]
Single-molecule measurements were performed following the method described in our previous studies[37],[41]. An inverted fluorescence microscope (IX-73; Olympus) with a total internal reflection fluorescence unit (IX3RFAEVAW; Olympus) was used[52],[53]. […] The fluorescence collected via the objective lens was detected using an EM-CCD camera (iXon Ultra 888, Andor). […] Images were recorded at intervals of 15–154 ms after reducing the number of observable molecules in the droplets by photobleaching within one minute. […]

[3] = tested on: p53 monomer (L344P) mutant; assay: Recruitment (enrichment index) of p53 monomer into designed peptide droplets; parameters: species or system human; details: 0.9–1.8 mM designed peptide, 0.1 µM Alexa488-labeled p53, 25 mM HEPES, 0.5 mM EDTA, 1 mM DTT, pH 7.0, 22 °C; ± standard error; SEM
Description: as §1, §2

[4] = tested on: maltose binding protein-fused FUS (FUS-MBP); assay: Recruitment (enrichment index) of FUS-MBP into designed peptide droplets; details: 1 mM DPp53N-GSGS-D7, 100 nM Alexa488-labeled protein, 1 mM DTT, pH 7.0
Experimental: as §2, with “Solutions containing 0.9–1.8 mM designed peptides, 0.1 µM Alexa488-labeled p53 mutants or Alexa488, 25 mM HEPES, 0.5 mM EDTA, and 1 mM DTT at pH 7.0 were used.” left out
Fig. S10 p53 monomer is localized inside droplets of DPp53N-GSGS-D7, whereas FUS-MBP is localized in its droplet surfaces. Fluorescence images of Alexa488-labeled p53 monomer mutant (L344P) and FUS-MBP in droplet solution of non-labeled DPp53N-GSGS-D7. The solution containing 103 mM HEPES and 1 mM DTT, 100 nM Alexa488 labeled proteins, and 1 mM DPp53N-GSGS-D7 at pH 7.0 was used.
Fig. S13 Design and experimental verification of artificial PS peptides from PS protein FUS. […] (B) DIC and fluorescence images of the solution containing 4 mM FUS designed peptide and 120 mM HEPES at pH 7.0. […] (C) Fluorescence images of Alexa488-labeled FUS-MBP in non-labeled FUS-designed-peptide droplet solution. […]

| Kd [1] [µM] | Average diffusion coefficient (D) in own droplets [2] [μm^2/s] | Average EI of FUS-MBP, fold smaller than that of p53 monomer [4] [fold] | Sequence | Decrease of average EI of p53 tetramer relative to p53 monomer (p53 tetramer) [fold] | Enrichment index (EI) of p53 monomer (L344P) mutant in peptide droplets [3] |
| --- | --- | --- | --- | --- | --- |
| 10 | – | – | DDDASQEDDD [DPp53C1] | – | – |
| – | 0.26 ± 0.01 | 2.2 | RRRVVQRRRRGSGSDDDDDDD [DPp53N-GSGS-D7] | 10.5 | 22.3 ± 0.7 |
